These are literature values, as cited in patent EP2156182B1, “DETECTION OF AN ANALYTE IN A SAMPLE OF HEMOLYZED WHOLE BLOOD” (Roche Diagnostics GmbH, priority 2007, dated 2008).

The conditions of data set [1]: relative to cyclosporin.
The conditions of data set [2]: therapeutic range, whole blood drug monitoring.

Molecules are shown by their SMILES.

In the case of `C=CC[C@@H]1/C=C(\C)C[C@H](C)C[C@H](OC)[C@H]2O[C@@](O)(C(=O)C(=O)N3CCCC[C@H]3C(=O)O[C@H](/C(C)=C/[C@@H]3CC[C@@H](O)[C@H](OC)C3)[C@H](C)[C@@H](O)CC1=O)[C@H](C)C[C@@H]2OC` [Tacrolimus, tacrolimus], in data set [1], the “times more potent than cyclosporin in vitro” value is “up to 100 times”. Also, in data set [2], the therapeutic trough concentration is 5 to 20 µg/L.

On to `CO[C@H]1C[C@@H]2CC[C@@H](C)[C@@](O)(O2)C(=O)C(=O)N2CCCC[C@H]2C(=O)O[C@H]([C@H](C)C[C@@H]2CC[C@@H](O)[C@H](OC)C2)CC(=O)[C@H](C)/C=C(\C)[C@@H](O)[C@@H](OC)C(=O)[C@H](C)C[C@H](C)/C=C/C=C/C=C/1C` [sirolimus], for which the therapeutic trough concentration in data set [2] is 5 to 15 µg/L.
